Assays:
Conditions in all cases: 72 h
Calu-3 [1] = test: cell viability relative to DMSO; higher = less toxic
U2OS [2] = test: as above
Vero E6 [3] = test: as above
HepG2 [4] = test: as above
Caco-2 [5] = test: as above
Calu-3 [6] = test: drug sensitivity score (DSS) for viability; higher = more toxic; extreme values may be limits of the assay
U2OS [7] = test: as above
Vero E6 [8] = test: as above
HepG2 [9] = test: as above
Caco-2 [10] = test: as above
Calu-3 [11] = test: relative viability EC50 (midpoint between 100% and the lowest measured viability); higher = less toxic
U2OS [12] = test: as above
Vero E6 [13] = test: as above
HepG2 [14] = test: as above
Caco-2 [15] = test: as above

| Structure (SMILES) | cell viability (Calu-3 [1]; 1 nM) [%] | cell viability (Calu-3 [1]; 10 nM) [%] | cell viability (Calu-3 [1]; 100 nM) [%] | cell viability (Calu-3 [1]; 1000 nM) [%] | cell viability (Calu-3 [1]; 10000 nM) [%] | cell viability (U2OS [2]; 1 nM) [%] | cell viability (U2OS [2]; 10 nM) [%] | cell viability (U2OS [2]; 100 nM) [%] | cell viability (U2OS [2]; 1000 nM) [%] | cell viability (U2OS [2]; 10000 nM) [%] | cell viability (Vero E6 [3]; 1 nM) [%] | cell viability (Vero E6 [3]; 10 nM) [%] | cell viability (Vero E6 [3]; 100 nM) [%] | cell viability (Vero E6 [3]; 1000 nM) [%] | cell viability (Vero E6 [3]; 10000 nM) [%] | cell viability (HepG2 [4]; 1 nM) [%] | cell viability (HepG2 [4]; 10 nM) [%] | cell viability (HepG2 [4]; 100 nM) [%] | cell viability (HepG2 [4]; 1000 nM) [%] | cell viability (HepG2 [4]; 10000 nM) [%] | cell viability (Caco-2 [5]; 1 nM) [%] | cell viability (Caco-2 [5]; 10 nM) [%] | cell viability (Caco-2 [5]; 100 nM) [%] | cell viability (Caco-2 [5]; 1000 nM) [%] | cell viability (Caco-2 [5]; 10000 nM) [%] | drug sensitivity score (Calu-3 [6]) | drug sensitivity score (U2OS [7]) | drug sensitivity score (Vero E6 [8]) | drug sensitivity score (HepG2 [9]) | drug sensitivity score (Caco-2 [10]) | relative viability EC50 (Calu-3 [11]) [µM] | relative viability EC50 (U2OS [12]) [µM] | relative viability EC50 (Vero E6 [13]) [µM] | relative viability EC50 (HepG2 [14]) [µM] | relative viability EC50 (Caco-2 [15]) [µM] |
| --- | --- | --- | --- | --- | --- | --- | --- | --- | --- | --- | --- | --- | --- | --- | --- | --- | --- | --- | --- | --- | --- | --- | --- | --- | --- | --- | --- | --- | --- | --- | --- | --- | --- | --- | --- |
| NC(=O)OCC(O)COc1ccc(Cl)cc1 (stereo not given) [chlorphensin-carbamate] | 92.6 | 96.3 | 91.6 | 85.5 | 94.2 | 99.6 | 99 | 96.3 | 98.2 | 94.3 | 110 | 95.5 | 105 | 96.5 | 103 | 91.7 | 97 | 100 | 100 | 100 | 100 | 109 | 92 | 117 | 93.3 | 0 | 0 | 0 | 0 | 0 | > 10 | > 10 | > 10 | > 10 | > 10 |
| Oc1cc(O)c2c(c1)O[C@H](c1ccc(O)c(O)c1)[C@@H](O)C2 [cianidanol] | 96.9 | 101 | 97.4 | 107 | 101 | 93.9 | 96.2 | 95.6 | 98.5 | 100 | 98 | 88.5 | 103 | 94.5 | 113 | 100 | 99.8 | 84.6 | 102 | 109 | 89.8 | 89.6 | 92.6 | 90.4 | 92.6 | 0 | 0 | 0 | 0 | 0 | > 10 | > 10 | > 10 | > 10 | > 10 |
| CC(C(=O)O)c1ccc2c(c1)Cc1ccccc1-2 (stereo not given) [cicloprofen] | 95.4 | 103 | 97.6 | 93.7 | 90.5 | 96.9 | 98 | 94.4 | 98.5 | 106 | 104 | 101 | 101 | 93.8 | 101 | 101 | 93.7 | 106 | 95.7 | 112 | 96.8 | 97.9 | 99.9 | 102 | 107 | 0 | 0 | 0 | 0 | 0 | > 10 | > 10 | > 10 | > 10 | > 10 |

Reference: the supplement of paper PMC13380429
